Reference: the NIST ThermoML archive (doi:10.1021/acs.jced.8b01042)
Numbers after ± are expanded uncertainties.

Columns and labels:
[1] = xn = mol fraction of the nth substance listed; details: 298.15 K; 101.3 kPa; Liquid; Capillary tube (Ostwald / Ubbelohde) method; x1 = 0.66
[2] = 298.15 K; 100 kPa; Liquid; Capillary tube (Ostwald / Ubbelohde) method

Row | SMILES | viscosity [1] | viscosity [2]
1 | OC1COCOC1 [1,3-dioxan-5-ol] + OCC1COCO1 | 20.05 ± 0.84 mPa·s | –
2 | CC1(C)OCC(CO)O1 (stereo not drawn) [2,2-dimethyl-1,3-dioxolane-4-methanol] | – | 10.06 ± 0.42 mPa·s
3 | OCC(O)CO [glycerol] | – | 1200 ± 97 mPa·s
